What was measured:
[1] = target: T1, GAL4-human ERRα LBD fusion (Homo sapiens, UniProt P11474); experiment: Transient transfection luciferase assay, GAL4-human ERRα LBD fusion with Gal4-TK-Luc reporter in HeLa cells; assay type: cell-based; details: pM-ERRα LBD, 24 h, mean ± SD
T1 construct: GAL4-human ERRα LBD fusion expression plasmid; expressed in transfected cells; host or cells: HeLa
T1 sequence (P11474 193-421 limits assumed): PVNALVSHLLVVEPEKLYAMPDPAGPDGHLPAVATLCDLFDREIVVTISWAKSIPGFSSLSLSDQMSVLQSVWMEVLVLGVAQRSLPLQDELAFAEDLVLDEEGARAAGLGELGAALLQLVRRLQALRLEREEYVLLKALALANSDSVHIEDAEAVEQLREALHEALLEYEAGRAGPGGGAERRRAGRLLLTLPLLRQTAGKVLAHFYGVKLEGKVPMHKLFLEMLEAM
Experimental: Referring to FIG. 2, we have also prepared GAL4-ERRα expression plasmid and luciferase reporter plasmids with GAL4 response element. This is a more sensitive assay method than that using pSG5-ERRα and ERE luciferase reporter plasmids.
(§1) To evaluate the functional significance of the interaction of chalcones with ERRα, we incubated these compounds with HeLa cells which were transiently transfected with human ERRα expression plasmid and a luciferase reporter plasmid containing SF1 binding site. […] In order to confirm the results above, HeLa cells were transiently transfected with GAL4-human ERRα LBD fusion expression plasmid and a luciferase reporter plasmid containing GAL4 binding site. […] Most of the compounds, however, have similar IC50 value, and have a similar potency.
(§2) Referring to FIG. 2, HeLa cells were cotransfected with pM-ERRα LBD (0.5 μg) and luciferase reporter plasmid containing GAL4 binding site and TK promoter (0.25 μg). The transfected cells were incubated with Compound No. 1-9 for 24 h. After cells were washed with 1× PBS, luciferase activity was measured. Values represent the mean±SD.

ERβ = target: T2, ERβ (Homo sapiens, UniProt Q92731); experiment: Transient transfection luciferase assay with pCI-ERb and ERE-SV40 reporter in HeLa cells, with 100 pM estradiol; assay type: cell-based
T2 construct: expressed in transfected cells; host or cells: HeLa
T2 sequence (Q92731 whole entry, species assumed): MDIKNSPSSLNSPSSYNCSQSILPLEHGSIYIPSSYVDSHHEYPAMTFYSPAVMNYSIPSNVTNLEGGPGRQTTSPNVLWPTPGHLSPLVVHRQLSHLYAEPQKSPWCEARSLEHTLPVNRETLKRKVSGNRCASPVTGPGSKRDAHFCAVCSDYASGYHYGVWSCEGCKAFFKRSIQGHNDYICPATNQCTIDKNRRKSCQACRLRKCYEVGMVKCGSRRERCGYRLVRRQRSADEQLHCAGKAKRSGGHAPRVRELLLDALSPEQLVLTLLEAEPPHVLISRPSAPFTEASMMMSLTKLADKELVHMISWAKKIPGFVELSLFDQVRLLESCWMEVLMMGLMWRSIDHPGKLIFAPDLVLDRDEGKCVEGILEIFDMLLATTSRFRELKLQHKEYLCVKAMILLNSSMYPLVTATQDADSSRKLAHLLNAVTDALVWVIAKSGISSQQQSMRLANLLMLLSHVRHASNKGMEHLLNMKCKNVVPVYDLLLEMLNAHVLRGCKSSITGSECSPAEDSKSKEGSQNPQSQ

ERRβ [2] = target: T3, ERRβ (Homo sapiens, UniProt O95718); experiment: Transient transfection luciferase assay with pSG5-ERRb and SF1-SV40 reporter in HeLa cells; assay type: cell-based
T3 construct: expressed in transfected cells; host or cells: HeLa
T3 sequence (O95718 1-433): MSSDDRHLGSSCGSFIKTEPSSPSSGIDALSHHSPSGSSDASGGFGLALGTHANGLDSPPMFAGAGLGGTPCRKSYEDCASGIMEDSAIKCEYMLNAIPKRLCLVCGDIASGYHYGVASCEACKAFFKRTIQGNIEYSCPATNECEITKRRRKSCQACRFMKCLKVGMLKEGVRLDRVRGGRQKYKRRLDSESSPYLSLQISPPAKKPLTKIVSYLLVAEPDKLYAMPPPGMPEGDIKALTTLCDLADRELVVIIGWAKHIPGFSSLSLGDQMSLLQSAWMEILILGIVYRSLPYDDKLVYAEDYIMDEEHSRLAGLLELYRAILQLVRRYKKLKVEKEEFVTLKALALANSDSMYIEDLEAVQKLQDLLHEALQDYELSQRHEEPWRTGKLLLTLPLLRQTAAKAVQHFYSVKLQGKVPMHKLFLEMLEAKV

ERα = target: T4, ERα (Homo sapiens, UniProt P03372); experiment: Transient transfection luciferase assay with pSG5-ERa and ERE-SV40 reporter in HeLa cells, with 100 pM estradiol; assay type: cell-based
T4 construct: expressed in transfected cells; host or cells: HeLa
T4 sequence (P03372 1-595): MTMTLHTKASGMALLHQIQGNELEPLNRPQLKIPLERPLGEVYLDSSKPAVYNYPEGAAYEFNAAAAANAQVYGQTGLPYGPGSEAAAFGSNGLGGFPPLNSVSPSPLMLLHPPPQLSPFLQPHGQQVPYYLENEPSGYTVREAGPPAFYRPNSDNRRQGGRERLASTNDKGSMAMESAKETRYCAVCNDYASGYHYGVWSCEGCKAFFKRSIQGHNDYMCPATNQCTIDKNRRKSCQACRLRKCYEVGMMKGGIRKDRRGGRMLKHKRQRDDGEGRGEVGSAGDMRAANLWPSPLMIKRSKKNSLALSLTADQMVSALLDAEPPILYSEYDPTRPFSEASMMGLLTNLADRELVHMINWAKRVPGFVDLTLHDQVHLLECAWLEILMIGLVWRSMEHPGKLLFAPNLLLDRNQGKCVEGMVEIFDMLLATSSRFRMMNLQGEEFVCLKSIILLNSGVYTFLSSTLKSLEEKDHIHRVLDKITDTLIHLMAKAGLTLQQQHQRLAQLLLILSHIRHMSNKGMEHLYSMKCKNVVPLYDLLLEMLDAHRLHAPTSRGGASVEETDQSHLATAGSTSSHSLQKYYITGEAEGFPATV

human ERRα-1 = target: T5, human ERRα-1 (Homo sapiens, UniProt P11474); experiment: Transient transfection luciferase assay, full length human ERRα with SF1-SV40-Luc reporter in HeLa cells; assay type: cell-based; details: HeLa cells
T5 construct: expressed in transfected cells; host or cells: HeLa
T5 sequence (P11474 1-423): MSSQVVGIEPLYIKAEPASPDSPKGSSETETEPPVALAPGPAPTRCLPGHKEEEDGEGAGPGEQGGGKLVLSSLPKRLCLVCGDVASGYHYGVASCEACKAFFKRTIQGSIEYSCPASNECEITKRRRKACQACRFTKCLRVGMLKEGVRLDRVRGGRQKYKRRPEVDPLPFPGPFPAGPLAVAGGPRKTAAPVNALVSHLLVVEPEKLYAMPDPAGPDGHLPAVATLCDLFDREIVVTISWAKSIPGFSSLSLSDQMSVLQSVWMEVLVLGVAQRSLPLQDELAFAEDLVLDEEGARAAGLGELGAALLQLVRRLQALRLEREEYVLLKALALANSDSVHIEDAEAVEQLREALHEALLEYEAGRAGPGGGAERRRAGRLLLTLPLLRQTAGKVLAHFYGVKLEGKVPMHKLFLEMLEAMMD
Experimental: HeLa cells were cultured in MEM Earle's salts medium supplemented with 5% charcoal/dextran-treated fetal bovine serum. Cells were then divided and cultured in 6-well plates until 80% confluence was achieved. The cells were next transfected with 4 μg Lipofectin. An equal amount of total DNA was used in all transfections by including appropriate amounts of the empty vector, pSG5, in addition to specific amounts of pSG5-ERRα and luciferase reporter plasmids (ERRE (ERRα recognizes an ERE half site)-containing reporter and aromatase promoter I.3-containing reporter). Following an overnight incubation, the medium containing Lipofectin and DNA was removed, and the cells cultured in a growth medium containing 5% charcoal/dextran-treated fetal bovine serum with or without ligands. After a 24-hour incubation, the cells was harvested from the plates by scraping, and the luciferase activities in the cell lysates (with the same amounts of protein) was measured according to the manufacturer's instructions (Promega). All experiments were performed in triplicate.
as §1
as §2, with “1,” for “2,”, “pSG5-ERRα” for “pM-ERRα LBD”, “SF1” for “GAL4”, “SV40” for “TK”

ERRγ [3] = target: T6, ERRγ (Homo sapiens, UniProt P62508); experiment: Transient transfection luciferase assay with pSG5-ERRg and SF1-SV40 reporter in HeLa cells; assay type: cell-based
T6 construct: expressed in transfected cells; host or cells: HeLa
T6 sequence (P62508 1-458): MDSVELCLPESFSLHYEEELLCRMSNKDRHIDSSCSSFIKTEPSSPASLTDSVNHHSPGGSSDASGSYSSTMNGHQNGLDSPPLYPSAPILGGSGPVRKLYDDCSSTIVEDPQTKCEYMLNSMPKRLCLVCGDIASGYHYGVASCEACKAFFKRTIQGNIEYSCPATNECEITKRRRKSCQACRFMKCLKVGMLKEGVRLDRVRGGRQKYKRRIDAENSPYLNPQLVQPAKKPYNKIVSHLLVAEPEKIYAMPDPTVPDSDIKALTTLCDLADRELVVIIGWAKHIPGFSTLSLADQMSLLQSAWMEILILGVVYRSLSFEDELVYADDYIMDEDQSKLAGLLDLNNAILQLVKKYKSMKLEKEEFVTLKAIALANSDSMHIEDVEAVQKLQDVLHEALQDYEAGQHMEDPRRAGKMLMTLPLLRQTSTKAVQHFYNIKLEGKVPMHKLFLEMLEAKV

ERRγ [4] = target: T6, ERRγ; experiment: Relative luciferase activity for ERRγ (FIG. 8); assay type: cell-based
ERRβ [5] = target: T3, ERRβ; experiment: Relative luciferase activity for ERRβ (FIG. 8); assay type: cell-based
ERRα = target: T7, ERRα (Homo sapiens, UniProt P11474); experiment: Relative luciferase activity for ERRα (FIG. 8); assay type: cell-based; set-up: endogenous in cells; host or cells: SK-BR-3
T7 sequence (P11474 1-423): T5 sequence (P11474 1-423)

ER = details: cited from earlier work
[6] = HeLa cells, in the presence of 100 pM of estradiol, 24 h
[7] = HeLa cells, 24 h, average of at least two experiments

SMILES: COc1ccc(C(=O)/C=C/c2ccccc2OC)c(O)c1 [7-2]
- IC50 [1]: 2e+06 ± 700000 pM
- IC50 (ERβ; [6]): 15 µM
- Antagonistic properties on ERb (in words) (ERβ; transient transfection): showed antagonistic properties
- IC50 (ERRβ [2]; [7]): 6.7 µM
- Antagonistic properties on ERRb (in words) (ERRβ [2]; transient transfection): showed antagonistic properties
- IC50 (ERα; [6]): 7.8 µM
- Antagonistic properties on ERa (in words) (ERα; transient transfection): showed antagonistic properties
- Antagonism of constitutive activity of ERRα (in words) (human ERRα-1; SF1 binding site reporter, FIG. 1): antagonists of ERRα
- IC50 (human ERRα-1; pSG5-ERRα, 24 h, mean ± SD): 8.3 ± 0.4 µM
- IC50 (ERRγ [3]; [7]): 8 µM
- Antagonistic properties on ERRg (in words) (ERRγ [3]; transient transfection): showed antagonistic properties

SMILES: O=C(/C=C/c1ccc(O)cc1)c1ccc(O)cc1O [Compound No. 3-15, 4,2′,4′-trihydroxychalcone]
- Agonist activity on ERRγ (ERRγ [4]): agonist of all three forms of ERRs
- Agonist activity on ERRβ (ERRβ [5]): agonist of all three forms of ERRs
- Agonist activity on ERRα (ERRα): agonist of all three forms of ERRs

SMILES: CC/C(=C(/c1ccc(O)cc1)c1ccc(OCCN(C)C)cc1)c1ccccc1 [E-4-OHT]
- Affinity for ER relative to Z-4-OHT (ER): about 5%
